Here are results for twelve molecules from ChEMBL document CHEMBL1177834, “ADMET rules of thumb II: A comparison of the effects of common substituents on a range of ADMET parameters” (Bioorg Med Chem, 2009).

SMILES strings stand for the structures.

The target in this experiment is Cytochrome P450 2C9 (Homo sapiens, UniProt P11712). In words: Inhibition of CYP2C9. Type of experiment: ADME.
Chain of Cytochrome P450 2C9 (P11712 whole entry): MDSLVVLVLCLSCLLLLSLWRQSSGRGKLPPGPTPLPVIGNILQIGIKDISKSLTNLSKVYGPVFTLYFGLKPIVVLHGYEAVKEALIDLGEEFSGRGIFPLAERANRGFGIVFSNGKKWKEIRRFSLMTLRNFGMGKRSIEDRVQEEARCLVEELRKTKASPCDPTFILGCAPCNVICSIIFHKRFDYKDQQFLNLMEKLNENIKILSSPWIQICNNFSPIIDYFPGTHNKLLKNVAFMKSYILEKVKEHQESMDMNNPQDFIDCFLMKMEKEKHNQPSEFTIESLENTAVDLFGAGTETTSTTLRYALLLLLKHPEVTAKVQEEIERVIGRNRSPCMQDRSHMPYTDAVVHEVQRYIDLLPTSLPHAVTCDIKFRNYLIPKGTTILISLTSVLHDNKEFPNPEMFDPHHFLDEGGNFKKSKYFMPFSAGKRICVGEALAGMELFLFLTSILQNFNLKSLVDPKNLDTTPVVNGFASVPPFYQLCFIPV
The molecule `Cc1c(-c2ccccc2)nc2ccccc2c1C(=O)N[C@@H](c1cccc(F)c1)C1CC1` gave an IC50 of 7.94 µM.

For the molecule `O=C(Cn1c(CCc2cccc(F)c2F)nc(=O)c2ccccc21)N(Cc1ccc(-c2ccc(C(F)(F)F)cc2)cc1)C1CCN(c2ccncn2)CC1`, the half-inhibitory concentration (IC50) is 0.0794 µM.

`Cc1c(-c2cccs2)nc2ccccc2c1C(=O)N[C@@H](C)C1CCCCC1` had a half-maximal inhibitory concentration (IC50) of 20 µM. In turn, `O=C(Cn1c(CCc2cccc(F)c2F)nc(=O)c2cccnc21)N(Cc1ccc(-c2ccc(C(F)(F)F)cc2)cc1)C1CCNCC1` had an IC50 of 20 µM. The figure for `Cc1ccc2c(N3CCN(CCc4ccc(F)cc4)CC3)cccc2n1` is 31.6 µM. In turn, `O=C(N[C@@H](c1cccc(F)c1)C1CC1)c1c(Cc2cncnc2)c(-c2ccccc2)nc2ccccc12` had an IC50 of 10 µM. `O=C(Cn1c(CCc2cccc(F)c2F)nc(=O)c2cccnc21)N(Cc1ccc(-c2ccc(C(F)(F)F)cc2)cc1)C1CCN(c2ccncn2)CC1`: the half-maximal inhibitory concentration (IC50) was 0.1 µM. For `Cc1ccc2c(N3CCN(CCc4ccc(F)c(-c5cncnc5)c4)CC3)cccc2n1`, the IC50 is 10 µM.

The molecule `C[C@H](NC(=O)c1c(Cc2cncnc2)c(-c2cccs2)nc2ccccc12)C1CCCCC1` had an IC50 of 31.6 µM. In the case of `O=C(Cn1c(CCc2cccc(F)c2F)nc(=O)c2ccccc21)N(Cc1ccc(-c2ccc(C(F)(F)F)cc2)cc1)C1CCNCC1`, it took 15.8 µM to reach half-maximal inhibition (IC50). `Cc1ccc2c(N3CCN(CCc4ccccc4)CC3)cccc2n1` had an IC50 of 39.8 µM. As for `Cc1ccc2c(N3CCN(CCc4cccc(-c5cncnc5)c4)CC3)cccc2n1`, the figure is 20 µM.
